In the assay the target is T1, Human AMPK α2β2γ1 (Homo sapiens, UniProt O43741+P54646).
T1 construct: The full length cDNAs of human AMPK β2 (NM_005399.3) and human AMPK α2 (NM_006252.3); The full length cDNAs of human AMPK β2 (NM_005399.3); the full length cDNA of human AMPK γ1 (NM_002733.3) had been inserted into pET28b(+); 6xHis (N); made in house; host or cells: Escherichia coli BL21 CodonPlus (DE3)-RTL (AMPK); BL21 Star (DE3) (CaMKKβ)
Description: Test Example 2: evaluation of an activator for AMP-activated protein kinase (AMPK), human AMPK α2β2γ1 phosphorylated with CaMKK2, FL-Peptide 7 mobility shift. The format is biochemical. The note with it: for EC150 (compound concentration showing 150% relative to the control (100%)): human AMPK α2β2γ1, 0.2 mM ATP final, 25° C., 2 hours; for Emax: human AMPK α2β2γ1, relative to control (100%), read-out: Emax (maximum rate of increase in activity within the measurement range). Here is the method:
The full length cDNAs of human AMPK β2 (NM_005399.3) and human AMPK α2 (NM_006252.3) were inserted into the MCS1 and MCS2 of the pETDuet-1 vector to prepare a human AMPK β2 and human AMPK α2 (6× His tag at the 5′ terminus) expressing plasmid. The plasmid was cotransfected with an expression plasmid, in which the full length cDNA of human AMPK γ1 (NM_002733.3) had been inserted into pET28b(+), into BL21 CodonPlus (DE3)-RTL to obtain an expression strain. The expression strain was cultured in TB medium, followed by induction with 0.5 mM IPTG, and cultured at 25° C. for 3 hours and then harvested.
An expression vector, in which the full length cDNA of human CAMKK β (NM_172226.1) had been inserted into pGEX-6P-3, was transfected into BL21 Star (DE3). The expression strain was cultured in TB medium, followed by induction with 0.5 mM IPTG, and cultured at 25° C. for 3 hours and then harvested.
Thus, phosphorylation treatment was carried out as pretreatment.
Human AMPK α2β2γ1 in an amount to give a conversion rate of approximately 10% by reaction for 2 hours, and CaMKK2 in an amount capable of sufficiently imparting activity to AMPK for one hour were mixed in a buffer solution consisting of a 50 mM HEPES-NaOH buffer solution (pH 7.0), 100 mM NaCl, 5 mM magnesium chloride, 0.1% bovine serum albumin, 0.2 mM sodium orthovanadate(V), 1 mM ethylene glycol-bis(2-aminoethyl ether)-N,N,N′,N′-tetraacetic acid (EGTA), 5 mM disodium β-glycerophosphate, 1 mM dithiothreitol and 0.2 mM ATP, and the obtained liquid was left to stand at 25° C. for 1 to 1.5 hours to sufficiently phosphorylate AMPK.
The obtained liquid was left to stand for 10 minutes.
The obtained liquid was allowed to react at 25° C. for 2 hours, and 10 μl of 20 mM EDTA was then added thereto to stop the reaction.
To detect phosphorylated fluorescent substrates, the reaction liquid was applied to a measuring device, LabChip EZ Reader II manufactured by Caliper Life Science, Inc., for detecting fluorescence by using differences in mobility due to differences in charge. The setting conditions for the device were pressure, −1.5 PSI; upstream voltage, −2250 V; downstream voltage, −400 V; post sample buffer sip time, 40 seconds; final delay, 120 seconds; and peak order, Product First.
A conversion rate was calculated from the peak heights of the resulting substrate and product. The conversion rate when not containing a compound was used as a control, and a concentration dependent curve was made by plotting the rate of increase in activity to the control at each concentration of a compound.

Each structure is given as a SMILES string.

Broadly, the Emax is the maximal effect, on the per cent scale that the assay sets.

T1 sequence (P54646 whole entry): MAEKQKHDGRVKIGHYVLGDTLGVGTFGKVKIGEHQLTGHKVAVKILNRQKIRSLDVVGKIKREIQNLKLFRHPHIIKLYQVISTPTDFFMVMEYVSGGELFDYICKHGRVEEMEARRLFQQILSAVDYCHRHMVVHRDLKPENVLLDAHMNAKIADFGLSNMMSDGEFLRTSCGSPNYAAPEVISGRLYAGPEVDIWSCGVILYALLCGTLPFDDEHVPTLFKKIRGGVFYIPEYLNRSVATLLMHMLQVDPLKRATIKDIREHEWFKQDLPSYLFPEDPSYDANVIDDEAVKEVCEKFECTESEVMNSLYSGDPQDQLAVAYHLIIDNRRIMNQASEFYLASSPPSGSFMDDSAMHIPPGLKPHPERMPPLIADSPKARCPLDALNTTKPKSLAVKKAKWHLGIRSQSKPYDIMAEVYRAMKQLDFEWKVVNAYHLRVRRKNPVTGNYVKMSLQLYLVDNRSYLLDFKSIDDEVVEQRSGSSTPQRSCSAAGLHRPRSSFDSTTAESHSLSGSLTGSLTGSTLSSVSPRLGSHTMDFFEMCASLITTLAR
T1 sequence (O43741 whole entry): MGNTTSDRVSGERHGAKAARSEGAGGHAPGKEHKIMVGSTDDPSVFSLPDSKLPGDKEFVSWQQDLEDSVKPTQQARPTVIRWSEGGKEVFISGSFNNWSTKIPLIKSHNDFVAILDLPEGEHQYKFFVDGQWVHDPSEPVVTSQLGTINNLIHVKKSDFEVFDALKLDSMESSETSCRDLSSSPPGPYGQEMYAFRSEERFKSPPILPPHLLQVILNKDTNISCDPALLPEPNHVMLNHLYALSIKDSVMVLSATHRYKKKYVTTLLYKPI
T1 sequence (P54619 whole entry partner): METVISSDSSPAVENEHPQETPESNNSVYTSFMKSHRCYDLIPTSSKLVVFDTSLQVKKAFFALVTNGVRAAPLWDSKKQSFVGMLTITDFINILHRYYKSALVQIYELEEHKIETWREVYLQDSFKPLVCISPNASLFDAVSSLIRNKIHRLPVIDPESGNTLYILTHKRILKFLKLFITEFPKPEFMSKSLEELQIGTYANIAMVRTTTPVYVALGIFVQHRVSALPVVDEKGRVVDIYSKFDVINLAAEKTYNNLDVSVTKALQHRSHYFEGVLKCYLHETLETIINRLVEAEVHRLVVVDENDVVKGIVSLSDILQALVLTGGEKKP

For `N#Cc1c(O[C@@H]2CO[C@H]3[C@@H]2OC[C@H]3O)[nH]c2cc(Cl)c(OCc3c(F)cccc3F)nc12` [Compound I-1-1], the “EC150 (compound concentration showing 150% relative to the control (100%))” value was found to be 330 nM and the Emax was found to be 660%.

For `N#Cc1cc2[nH]c(O[C@@H]3CO[C@H]4[C@@H]3OC[C@H]4O)cc2nc1-c1ccc(N2CCOCC2)cc1` [Compound I-1-4], the “EC150 (compound concentration showing 150% relative to the control (100%))” value is reported as 8.3 nM and the Emax was found to be 849%.

Turning to `O[C@@H]1CO[C@H]2[C@@H]1OC[C@H]2Oc1cc2nc(-c3c(F)cc(C4=CCOCC4)cc3F)c(F)cc2[nH]1` [Compound I-1-6], the “EC150 (compound concentration showing 150% relative to the control (100%))” value came to 2 nM and the Emax is 647%.

Take `N#Cc1c(O[C@@H]2CO[C@H]3[C@@H]2OC[C@H]3O)[nH]c2cc(Cl)c(-c3ccc(-c4ccccc4)cc3)nc12` [Compound I-1-7]: the “EC150 (compound concentration showing 150% relative to the control (100%))” value was 59 nM and the Emax was found to be 805%.

For `O=C(O)C1CC=C(c2ccc(-c3nc4cc(O[C@H]5CCOC5)[nH]c4cc3Cl)cc2)CC1` (some centres unmarked) [Compound I-1-8], the “EC150 (compound concentration showing 150% relative to the control (100%))” value amounted to 4.1 nM and the maximum response (Emax) was 338%.

Consider `O=C(CO)N1CC=C(c2cc(F)c(-c3nc4cc(O[C@@H]5CO[C@H]6[C@@H]5OC[C@H]6O)[nH]c4cc3Cl)c(F)c2)CC1` [Compound I-1-10], for which the “EC150 (compound concentration showing 150% relative to the control (100%))” value worked out at 1.8 nM and the Emax stood at 751%.

Turning to `O[C@@H]1CO[C@H]2[C@@H]1OC[C@H]2Oc1[nH]c2cc(Cl)c(-c3ccc(N4CCOCC4)cc3)nc2c1Cl` [Compound I-1-11], the “EC150 (compound concentration showing 150% relative to the control (100%))” value is listed as 3.9 nM and the Emax is 770%.

As for `N#Cc1c(O[C@@H]2CO[C@H]3[C@@H]2OC[C@H]3O)[nH]c2cc(Cl)c(-c3ccc(C4=CCN(C(=O)CO)CC4)cc3)nc12` [Compound I-1-12], the “EC150 (compound concentration showing 150% relative to the control (100%))” value was determined as 23 nM and the Emax was found to be 779%.

For the molecule `O[C@@H]1CO[C@H]2[C@@H]1OC[C@H]2Oc1[nH]c2cc(Cl)c(-c3c(F)cc(C4=CCOCC4)cc3F)nc2c1Cl` [Compound I-1-15], the “EC150 (compound concentration showing 150% relative to the control (100%))” value is recorded as 53 nM and the maximal response (Emax) worked out at 680%.

In the case of `CC(C)(C(=O)O)[C@H]1CC[C@H](Oc2cc3nc(-c4c(F)cc(N5CCOCC5)cc4F)c(Cl)cc3[nH]2)CC1` [Compound I-1-16], the “EC150 (compound concentration showing 150% relative to the control (100%))” value came to 810 nM and the Emax came out at 204%.

Turning to `OC[C@@H]1C[C@H](Oc2cc3nc(-c4c(F)cc(N5CCOCC5)cc4F)c(Cl)cc3[nH]2)CO1` [Compound I-1-18], the “EC150 (compound concentration showing 150% relative to the control (100%))” value is 22 nM and the Emax stood at 776%.

Take `O=C(O)C1CC=C(c2ccc(-c3nc4c(Cl)c(O[C@@H]5CO[C@H]6[C@@H]5OC[C@H]6O)[nH]c4cc3Cl)cc2)CC1` (some centres unmarked) [Compound I-1-20]: the “EC150 (compound concentration showing 150% relative to the control (100%))” value was found to be 2.9 nM and the Emax is 746%.

In the case of `O=C(O)C1CC=C(c2cc(F)c(-c3nc4cc(O[C@H]5CCOC5)[nH]c4cc3Cl)c(F)c2)CC1` (some centres unmarked) [Compound I-1-23], the “EC150 (compound concentration showing 150% relative to the control (100%))” value stood at 11 nM and the Emax came to 341%.

`O[C@@H]1CO[C@H]2[C@@H]1OC[C@H]2Oc1cc2nc(-c3ccc(N4CCOCC4)cc3F)c(Cl)cc2[nH]1` [Compound I-1-25]: the “EC150 (compound concentration showing 150% relative to the control (100%))” value was 11 nM and the maximum response (Emax) came to 768%.

For the molecule `CN(C)CCOc1ccc(-c2ccc(-c3nc4c(C#N)c(O[C@@H]5CO[C@H]6[C@@H]5OC[C@H]6O)[nH]c4cc3Cl)cc2)cc1` [Compound I-1-37], the “EC150 (compound concentration showing 150% relative to the control (100%))” value came out at 6 nM and the Emax amounted to 859%.

In the case of `COc1cccc(-c2ccc(-c3nc4c(C#N)c(O[C@@H]5CO[C@H]6[C@@H]5OC[C@H]6O)[nH]c4cc3Cl)cc2)c1O` [Compound I-1-38], the “EC150 (compound concentration showing 150% relative to the control (100%))” value was found to be 1.5 nM and the Emax was 841%.
